Patent publication US20230115176A1 (Ra Pharmaceuticals, Inc., priority 2019, published 2023)

Molecular target: T1, Human C5 (Homo sapiens, UniProt P01031)
T1 construct: purchased Complement Technology
Assay: Red blood cell (RBC) hemolysis assay, luminescent (Example 28, Table 32)
Type: cell-based
Conditions: sheep EA cells, 1.5% C5-depleted human serum, 0.5 nM human C5, 1 hour at 37° C., luminescence (Table 32)
Method: Sheep red blood cells coated with rabbit anti-sheep erythrocyte antiserum (EA cells; Complement Technology, Tyler, Tex.) were used to assay compound inhibitory activity of the classical complement activation pathway. Briefly, the EA cells were washed once and resuspended in the same volume of GVB++ buffer (Complement Technology, Tyler, Tex.). 25 μL of EA cells were then distributed into each well of 384-well tissue culture plates using Apricot iPipette Pro (Apricot Designs; Covina, Calif.). Compounds were tested in 10 points of final concentrations ranging from 16.67 μM to 1.65 μM in a 6-fold titration series. Compounds were dispensed into 384-well plates from 6.7 mM and 3.35 μM DMSO working stocks using an HP Digital Dispenser (HP; Corvallis, Oreg.). The reactions also contained 1.5% (v/v) C5-depleted human serum (Complement Technology). Hemolysis was induced by addition of human C5 (Complement Technology) at a concentration of 0.5 nM and plates were incubated for 1 hour at 37° C. in a cell culture incubator. The extent of hemolysis was measured by ability of released hemoglobin to catalyze luminol in the presence of hydrogen peroxide. Luminescence was then measured using a plate reader. Luminescence measurements were used to prepare a dose-response curve. From the curve, the half maximal inhibitory concentration (IC50) for each compound was determined, where the IC50 represents the concentration of each compound needed to reduce red blood cell hemolysis by half.

T1 sequence (P01031 19-1676): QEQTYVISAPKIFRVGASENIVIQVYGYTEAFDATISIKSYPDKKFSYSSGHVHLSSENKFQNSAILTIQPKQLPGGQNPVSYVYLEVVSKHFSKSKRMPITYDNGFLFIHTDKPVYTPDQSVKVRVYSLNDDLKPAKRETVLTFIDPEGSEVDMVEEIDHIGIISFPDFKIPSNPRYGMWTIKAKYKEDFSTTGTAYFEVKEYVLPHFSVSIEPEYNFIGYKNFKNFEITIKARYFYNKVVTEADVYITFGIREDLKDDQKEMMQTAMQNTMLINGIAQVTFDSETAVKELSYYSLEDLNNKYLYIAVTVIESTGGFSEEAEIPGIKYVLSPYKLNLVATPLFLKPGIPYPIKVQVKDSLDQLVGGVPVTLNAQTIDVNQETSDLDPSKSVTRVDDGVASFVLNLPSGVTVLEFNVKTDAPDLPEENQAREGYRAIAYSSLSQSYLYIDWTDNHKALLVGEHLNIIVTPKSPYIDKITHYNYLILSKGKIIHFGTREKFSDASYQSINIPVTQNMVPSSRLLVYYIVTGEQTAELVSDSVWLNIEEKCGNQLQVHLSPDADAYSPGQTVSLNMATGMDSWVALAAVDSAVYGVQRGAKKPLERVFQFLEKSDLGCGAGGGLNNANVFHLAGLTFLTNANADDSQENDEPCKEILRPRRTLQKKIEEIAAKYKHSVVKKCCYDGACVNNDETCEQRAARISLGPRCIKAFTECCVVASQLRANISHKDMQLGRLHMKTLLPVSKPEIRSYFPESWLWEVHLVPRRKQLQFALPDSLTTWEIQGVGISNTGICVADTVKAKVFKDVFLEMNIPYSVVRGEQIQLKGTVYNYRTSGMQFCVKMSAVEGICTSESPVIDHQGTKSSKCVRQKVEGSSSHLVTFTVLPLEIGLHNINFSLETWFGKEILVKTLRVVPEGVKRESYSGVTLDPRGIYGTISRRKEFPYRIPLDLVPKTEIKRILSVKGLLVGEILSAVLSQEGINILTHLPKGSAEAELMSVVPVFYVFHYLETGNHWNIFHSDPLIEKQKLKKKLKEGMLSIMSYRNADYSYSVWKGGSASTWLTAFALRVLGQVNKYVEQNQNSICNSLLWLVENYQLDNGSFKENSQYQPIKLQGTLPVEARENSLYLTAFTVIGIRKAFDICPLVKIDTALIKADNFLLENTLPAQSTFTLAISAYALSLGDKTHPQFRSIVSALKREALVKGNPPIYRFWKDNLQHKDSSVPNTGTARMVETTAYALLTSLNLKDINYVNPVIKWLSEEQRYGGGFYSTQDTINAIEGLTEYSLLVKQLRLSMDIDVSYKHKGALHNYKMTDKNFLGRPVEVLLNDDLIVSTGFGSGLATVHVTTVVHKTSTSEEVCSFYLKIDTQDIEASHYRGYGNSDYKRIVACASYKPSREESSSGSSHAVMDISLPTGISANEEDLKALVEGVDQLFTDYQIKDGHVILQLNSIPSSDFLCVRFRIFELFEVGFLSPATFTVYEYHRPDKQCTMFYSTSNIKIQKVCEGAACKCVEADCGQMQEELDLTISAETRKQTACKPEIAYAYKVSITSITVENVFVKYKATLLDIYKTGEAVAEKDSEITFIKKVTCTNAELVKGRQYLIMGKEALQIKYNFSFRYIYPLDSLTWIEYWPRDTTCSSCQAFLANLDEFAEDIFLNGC

SMILES | IC50 [nM]
CCCCCOc1cc(N2C[C@H](C(=O)NC)CN(Cc3cc(F)ccc3OC)C2=O)ccc1OC [SC0217] | 25.3
COc1cc(CC(=O)N(C)C)ccc1CN1CC(C)CN(c2ccc(OC)c(OCCCC3CC3)c2)C1=O (stereo not shown) [SC0194] | 8.5
COc1cc(CC(=O)N[C@H]2CCN(C(=O)OC(C)(C)C)C2)ccc1CN1C(=O)N(c2ccc(OC)c(OCCCC3CC3)c2)CC[C@@H]1C [SC0216] | 19.6
CCCCCOc1cc(N2CC(C)(C)CN(Cc3ccc(CC(=O)N(C)C)cc3OC)C2=O)ccc1OC [SC0220] | 42.1
CCCCCOc1cc(N2CC[C@H](C)N(Cc3ccnc4c3c(Cl)cn4CC(=O)N3CC(O)(C(F)(F)F)C3)C2=O)ccc1OC [SC0133] | 1.7
COc1cc(CC(=O)N[C@@H]2CN(C(=O)OC(C)(C)C)C[C@@H]2F)ccc1CN1C(=O)N(c2ccc(OC)c(OCCCC3CC3)c2)CC[C@@H]1C [SC0185] | 5.7
COc1cc(CC(=O)N(C)[C@@H]2CCNC2)ccc1CN1C(=O)N(c2ccc(OC)c(OCCCC3CC3)c2)CC[C@@H]1C [SC0121] | 1.5
COc1cc(CC(=O)N2CCCC2)ccc1CN1CC(C)CN(c2ccc(OC)c(OCCCC3CC3)c2)C1=O (stereo not shown) [SC0191] | 7.3
CCCCCOc1cc(N2C[C@@H](C)CN(Cc3ccc(CC(=O)N(C)C)cc3OC)C2=O)ccc1OC [SC0210] | 15.1
CCCCCOc1cc(N2C[C@@H](C)CN(Cc3ccc(CC(=O)N4CCCC4)cc3OC)C2=O)ccc1OC [SC0212] | 16.5
CCCCCOc1cc(N2C[C@H](CO)CN(Cc3ccc(CC(=O)N(C)C)cc3OC)C2=O)ccc1OC [SC0176] | 4.5
COc1ccc(N2CC[C@H](C)N(Cc3cccc4c3ccn4CC(=O)N(C)C)C2=O)cc1OCCCC1CCC1 [SC0205] | 11.4
COc1cc(CCO)ccc1CN1C(=O)N(c2ccc(OC)c(OCCCC3CC3)c2)CC[C@@H]1C [SC0180] | 4.9
COc1cc(CC(=O)N[C@@H]2CCN(C(=O)OC(C)(C)C)C2)ccc1CN1C(=O)N(c2ccc(OC)c(OCCCC3CC3)c2)CC[C@@H]1C [SC0187] | 6.1
CCCCCOc1cc(N2CC[C@@H](C)NC2=O)ccc1OC [SC0231] | 2660
CCCCCOc1cc(N2CC(COCc3ccccc3)CN(Cc3ccc(Br)cc3OC)C2=O)ccc1OC (stereo not shown) [SC0232] | 3120
CCCCCOc1cc(N2CC[C@@H](C)N(Cc3cccc4c3ccn4CC(=O)O)C2=O)ccc1OC [SC0227] | 135
COc1cc(CCN2CCOCC2)ccc1CN1C(=O)N(c2ccc(OC)c(OCCCC3CC3)c2)CC[C@@H]1C [SC0182] | 5.2
COc1cc(CC(=O)O)ccc1CN1CC(C)CN(c2ccc(OC)c(OCCCC3CC3)c2)C1=O (stereo not shown) [SC0221] | 54.4
CCCCCOc1cc(N2CC[C@H](C)N(Cc3ccnc4c3c(Cl)cn4CC(=O)N(C)OC)C2=O)ccc1OC [SC0124] | 1.6
COc1cc(CC(=O)N2CC[C@@H](N(C)C)C2)ccc1CN1C(=O)N(c2ccc(OC)c(OCCCC3CC3)c2)CC[C@@H]1C [SC0140] | 2.1
COc1ccc(N2CC[C@H](C)N(Cc3cccc4c3ccn4CC(=O)N(C)C)C2=O)cc1OCCCCC1CC1 [SC0203] | 10.2
COc1cc(Cc2ncccn2)ccc1CN1C(=O)N(c2ccc(OC)c(OCCCC3CC3)c2)CC[C@@H]1C [SC0157] | 2.6
CCCCCOc1cc(N2C[C@H](C)CN(Cc3ccc(CC(=O)N4CCOCC4)cc3OC)C2=O)ccc1OC [SC0193] | 8.3
CCCCCOc1cc(N2CC[C@H](C)N(Cc3ccnc4c3c(Cl)cn4CC(=O)N[C@H]3CCNC3)C2=O)ccc1OC [SC0143] | 2.1

SMILES | IC50 [nM]
COc1cc(CC(=O)N(C)[C@@H]2CCN(C(=O)OC(C)(C)C)C2)ccc1CN1C(=O)N(c2ccc(OC)c(OCCCC3CC3)c2)CC[C@@H]1C [SC0202] | 10.1
COc1cc(CC(=O)O)ccc1CN1C(=O)N(c2ccc(OC)c(OCCCC3CC3)c2)CC[C@@H]1C [SC0192] | 7.8
COc1cc(CC(=O)N2CCOC(CN(C)C)C2)ccc1CN1C(=O)N(c2ccc(OC)c(OCCCC3CC3)c2)CC[C@@H]1C (stereo partly shown) [SC0142] | 2.1
CCCCCOc1cc(N2CC[C@@H](C)N(Cc3cccc4c3ccn4CC(=O)OCC)C2=O)ccc1OC [SC0211] | 15.6
CCCCCOc1cc(N2C[C@@H](C(N)=O)CN(Cc3cc(F)ccc3OC)C2=O)ccc1OC [SC0213] | 18.2
COc1cc(CC(=O)N[C@H]2CNC[C@H]2F)ccc1CN1C(=O)N(c2ccc(OC)c(OCCCC3CC3)c2)CC[C@@H]1C [SC0152] | 2.3
CCCCCOc1cc(N2CC[C@@H](C)N(Cc3cccc4c3ccn4S(=O)(=O)c3ccc(C)cc3)C2=O)ccc1OC [SC0230] | 703
CCCCCOc1cc(N2CC[C@H](C)N(Cc3ccnc4c3c(Cl)cn4CC(=O)N3CC[C@H](N(C)C)C3)C2=O)ccc1OC [SC0129] | 1.7
CCCCCOc1cc(N2CC[C@H](C)N(Cc3ccc(CC(=O)N(C)C)cc3OC)C2=O)ccc1OC [SC0173] | 4.2
CCN1CC[C@@H](NC(=O)Cc2ccc(CN3C(=O)N(c4ccc(OC)c(OCCCC5CC5)c4)CC[C@@H]3C)c(OC)c2)C1 [SC0126] | 1.6
CCCCCOc1cc(N2CC[C@H](C)N(Cc3ccc(CC(=O)N4CCOC(CN(C)C)C4)cc3OC)C2=O)ccc1OC (stereo partly shown) [SC0153] | 2.3
CCCCCOc1cc(N2CC[C@H](C)N(Cc3cccc4c3c(Cl)c(Cl)n4CC(=O)N(C)C)C2=O)ccc1OC [SC0181] | 5.1
CCCCCOc1cc(N2CC(C)CN(Cc3ccc(C#N)cc3OC)C2=O)ccc1OC (stereo not shown) [SC0228] | 211
CCCCCOc1cc(N2CC(CO)CN(Cc3ccc(CC(=O)O)cc3OC)C2=O)ccc1OC (stereo not shown) [SC0222] | 74.1
CCCCCOc1cc(N2CC(CO)CN(Cc3ccc(CNC(C)=O)cc3OC)C2=O)ccc1OC (stereo not shown) [SC0189] | 7
CCCCCOc1cc(N2CC(C(N)=O)CN(Cc3ccc(CNC(C)=O)cc3OC)C2=O)ccc1OC (stereo not shown) [SC0199] | 9.8
CCCCCOc1cc(N2CC[C@H](C)N(Cc3ccnc4c3c(Cl)cn4CCOCCOCCOC)C2=O)ccc1OC [SC0131] | 1.7
COc1cc(CC(=O)N(C)[C@H]2CCN(C(=O)OC(C)(C)C)C2)ccc1CN1C(=O)N(c2ccc(OC)c(OCCCC3CC3)c2)CC[C@@H]1C [SC0188] | 6.4
CCCCCOc1cc(N2CC(C)CN(Cc3ccc(CNC(=O)OC)cc3OC)C2=O)ccc1OC (stereo not shown) [SC0200] | 9.9
CCCCCOc1cc(N2CC[C@H](C)N(Cc3cccc(OC)c3O)C2=O)ccc1OC [SC0195] | 8.5
CCCCCOc1cc(N2CC[C@H](C)N(Cc3ccc(CCO)cc3OC)C2=O)ccc1OC [SC0197] | 9.1
C=C1CN(Cc2ccc(C#N)cc2OC)C(=O)N(c2ccc(OC)c(OCCCCC)c2)C1 [SC0226] | 132
COc1cc(CC(=O)N(C)C)ccc1CN1C(=O)N(c2ccc(OC)c(OCCCC3CC3)c2)CC[C@@H]1C [SC0135] | 1.8
CCCCCOc1cc(N2CC[C@H](C)N(Cc3ccnc4c3c(Cl)cn4CC(=O)N(C)C)C2=O)c(F)cc1OC [SC0175] | 4.4
CCCCCOc1cc(N2CC(CO)CN(Cc3ccc(C#N)cc3OC)C2=O)ccc1OC (stereo not shown) [SC0224] | 98.5

SMILES | IC50 [nM]
CCCCCOc1cc(N2C[C@H](C)CN(Cc3ccc(CC(=O)N4CCCC4)cc3OC)C2=O)ccc1OC [SC0207] | 11.8
CCCCCOc1cc(N2CC[C@H](C)N(Cc3ccnc4c3c(Cl)cn4CCOCCOC)C2=O)ccc1OC [SC0150] | 2.2
CCCCCOc1cc(N2CC[C@@H](C)N(Cc3cccc4[nH]ccc34)C2=O)ccc1OC [SC0214] | 18.2
CCCCCOc1cc(N2CC[C@H](C)N(Cc3ccnc4c3c(Cl)cn4C3COC3)C2=O)ccc1OC [SC0151] | 2.2
CCCCCOc1cc(N2CC[C@H](C)N(Cc3ccnc4[nH]ccc34)C2=O)ccc1OC [SC0219] | 40
CCN1CC[C@H](NC(=O)Cc2ccc(CN3C(=O)N(c4ccc(OC)c(OCCCC5CC5)c4)CC[C@@H]3C)c(OC)c2)C1 [SC0141] | 2.1
COc1cc(CC(=O)N(C)[C@H]2CCN(CCF)C2)ccc1CN1C(=O)N(c2ccc(OC)c(OCCCC3CC3)c2)CC[C@@H]1C [SC0165] | 3
COc1cc(CC(=O)N[C@@H]2CNC[C@@H]2F)ccc1CN1C(=O)N(c2ccc(OC)c(OCCCC3CC3)c2)CC[C@@H]1C [SC0130] | 1.7
COc1ccc(N2CC[C@H](C)N(Cc3cccc4c3c(Cl)cn4CC(=O)N(C)C)C2=O)cc1OCCCCC1CC1 [SC0145] | 2.1
COc1cc(CC(=O)N2CCNC(=O)C2)ccc1CN1C(=O)N(c2ccc(OC)c(OCCCC3CC3)c2)CC[C@@H]1C [SC0118] | 1.4
COc1cc(CC(=O)N[C@H]2CN(C(=O)OC(C)(C)C)C[C@H]2F)ccc1CN1C(=O)N(c2ccc(OC)c(OCCCC3CC3)c2)CC[C@@H]1C [SC0160] | 2.7
COc1cc(CCN2CC3(COC3)C2)ccc1CN1C(=O)N(c2ccc(OC)c(OCCCC3CC3)c2)CC[C@@H]1C [SC0196] | 8.6
COc1cc(CC(=O)N2CCOCC2)ccc1CN1C(=O)N(c2ccc(OC)c(OCCCC3CC3)c2)CC[C@@H]1C [SC0139] | 1.9
CCCCCOc1cc(N2C[C@@H](C)CN(Cc3ccc(CC(=O)N4CCOCC4)cc3OC)C2=O)ccc1OC [SC0201] | 10
CCCCCOc1cc(N2CC(COCc3ccccc3)CN(Cc3ccc(CC(=O)O)cc3OC)C2=O)ccc1OC (stereo not shown) [SC0229] | 371
COc1cc(Cc2cnccn2)ccc1CN1C(=O)N(c2ccc(OC)c(OCCCC3CC3)c2)CC[C@@H]1C [SC0138] | 1.8
CCCCCOc1cc(N2C[C@@H](C(=O)NC)CN(Cc3cc(F)ccc3OC)C2=O)ccc1OC [SC0223] | 96.9
CCCCCOc1cc(N2CC[C@H](C)N(Cc3cccc4c3cc(C)n4CC(=O)N(C)C)C2=O)ccc1OC [SC0218] | 34.4
CCCCCOc1cc(N2C[C@H](C(N)=O)CN(Cc3cc(F)ccc3OC)C2=O)ccc1OC [SC0215] | 18.6
COc1ccc(N2CC[C@H](C)N(Cc3ccnc4c3ccn4CC(=O)N(C)C)C2=O)cc1OCCCC1CC1 [SC0208] | 12.6
COc1cc(CC(=O)N[C@@H]2CN(CCO)C[C@@H]2F)ccc1CN1C(=O)N(c2ccc(OC)c(OCCCC3CC3)c2)CC[C@@H]1C [SC0136] | 1.8
COc1cc(CC(=O)N(C)[C@H]2CCNC2)ccc1CN1C(=O)N(c2ccc(OC)c(OCCCC3CC3)c2)CC[C@@H]1C [SC0161] | 2.8
COc1ccc(N2CC[C@H](C)N(Cc3cccc4c3ccn4S(=O)(=O)c3ccc(C)cc3)C2=O)cc1OCCCC1CC1 [SC0225] | 110
